Results as given in ChEMBL document CHEMBL4052711, “Synthesis of 4- and 5-arylthiazolinethiones as inhibitors of indoleamine 2,3-dioxygenase” (Bioorg Med Chem Lett, 2017).

Legend:
[1] = target: T1, Indoleamine 2,3-dioxygenase 1 (Homo sapiens, UniProt P14902); assay: Inhibition of human IDO1 at 100 uM pre-incubated for 10 mins before L-Trp as substrate addition and measured after 30 mins by colorimetry
Target sequence in this assay (P14902 whole entry, looked up): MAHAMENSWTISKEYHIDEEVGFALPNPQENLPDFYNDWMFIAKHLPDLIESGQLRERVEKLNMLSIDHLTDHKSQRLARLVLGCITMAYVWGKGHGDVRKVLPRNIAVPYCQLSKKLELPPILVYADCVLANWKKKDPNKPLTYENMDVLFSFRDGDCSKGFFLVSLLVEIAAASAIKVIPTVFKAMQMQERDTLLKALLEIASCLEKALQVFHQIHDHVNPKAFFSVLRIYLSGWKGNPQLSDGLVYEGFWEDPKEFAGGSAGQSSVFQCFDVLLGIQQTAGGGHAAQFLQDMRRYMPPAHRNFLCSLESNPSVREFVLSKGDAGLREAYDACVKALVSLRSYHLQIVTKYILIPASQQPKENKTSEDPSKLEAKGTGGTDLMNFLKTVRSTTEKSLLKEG

[2] = target: T1, Indoleamine 2,3-dioxygenase 1; assay: Inhibition of human IDO1 pre-incubated for 10 mins before L-Trp as substrate addition and measured after 30 mins by colorimetry
Target sequence in this assay (P14902 whole entry): as the sequence (P14902 whole entry, looked up) above

[3] = target: T1, Indoleamine 2,3-dioxygenase 1; assay: Inhibition of human IDO1 at 10 uM pre-incubated for 10 mins before L-Trp as substrate addition and measured after 30 mins by colorimetry
Target sequence in this assay (P14902 whole entry, looked up): as above

Structure (SMILES)	inhibition [1] [%]	also measured
Fc1ccccc1-c1c[nH]c(=S)s1	29	–
OCc1cccc(-c2csc(=S)[nH]2)c1	16	–
S=c1[nH]cc(-c2cccc(Br)c2)s1	48	–
Brc1nc(-c2ccccc2)cs1	12	–
Cc1ccc(-c2csc(S)n2)cc1	90	IC50 ([2]; read-out: IC50): 5.9 µM; inhibition [3]: 39%
Sc1nc(-c2ccccc2)cs1	76	inhibition [3]: 35%
COc1ccc(-c2c[nH]c(=S)s2)cc1	0	–
COc1ccccc1-c1c[nH]c(=S)s1	12	–
Fc1ccccc1-c1csc(=S)[nH]1	77	–
N#Cc1ccc(-c2csc(=S)[nH]2)cc1	8	–
Cc1ccc(-c2c[nH]c(=S)s2)cc1	15	–
COc1ccc(-c2csc(=S)[nH]2)cc1	68	–
S=c1[nH]c(-c2ccc(Br)cc2)cs1	100	IC50 ([2]; read-out: IC50): 3.4 µM; inhibition [3]: 88%
COc1ccccc1-c1csc(=S)[nH]1	53	–
Fc1ccc(-c2csc(S)n2)cc1	72	–
Sc1nc(-c2ccc(Cl)cc2)cs1	95	IC50 ([2]; read-out: IC50): 2.6 µM; IC50 ([2]; read-out: pIC50 (converted)): 2.86 µM; inhibition [3]: 79%
S=c1[nH]c(-c2cccnc2)cs1	48	–
FC(F)(F)c1ccc(-c2csc(=S)[nH]2)cc1	37	–
Clc1nc(-c2ccccc2)cs1	0.5	–
S=c1[nH]c(-c2cccc(Br)c2)cs1	81	–
Fc1cccc(-c2csc(=S)[nH]2)c1	28	–
S=c1[nH]cc(-c2ccccc2)s1	16	–
Nc1nc(-c2ccccc2)cs1	13	–
Oc1nc(-c2ccccc2)cs1	15	–
S=c1[nH]c(-c2cccc(Cl)c2)cs1	40	–
O=C(O)c1ccccc1-c1csc(=S)[nH]1	8	–
S=c1[nH]c(-c2ccncc2)cs1	21	–
